According to patent publication US9364448B2, “Nitisinone for treatment of oculocutaneous/ocular albinism and for increasing pigmentation” (The United States of America, as represented by the …, priority 2010, dated 2016):

Key:
[1] = test system: melanocytes from a patient with OCA-1B; experiment: Human melanocyte melanin assay, OCA-1B patient; format: cell-based; conditions: 1 mM tyrosine, p=0.0025, not to wild-type level
Description: Human melanocyte culture and melanin assay. Human melanocytes were established from skin punch biopsies. Skin specimens were washed with PBS then treated with 0.25% trypsin-EDTA (Gibco 25200) for about 2 hours followed by vigorous vortexing to separate the epidermis. The epidermis was sectioned and attached to scored patches on the bottom of a 6-well polystyrene culture dish before being covered with melanocyte media. About 1000 ml of melanocyte media was made from 950 ml Ham's F10 (Gibco 1550), 25 ml FBS, 5 ug bFGF (Sigma F0291), 10 μg endothelin (Sigma, E7764, Sigma Chemicals, St. Louis, Mo.), 7.5 mg IBMX (Sigma 17018), 30 μg cholera toxin (Sigma C8052), 3.3 μg TPA (Sigma P8139), 10 ml PenStrepGlutamine, 1 ml fungizone and the media was 0.22 μm filtered.
Melanocytes were plated on 6 well dishes and grown to confluency. Melanin assays were run in triplicate by supplementing three wells per plate with 1 mM tyrosine (Sigma T8566), using the remaining 3 wells as untreated controls. Treatment time was approximately one week. […] The OD475 was measured and converted to melanin content via a standard curve using synthetic melanin (Sigma M0418). The data were normalized to protein content, determined using a bicinchoninic (BCA) assay kit (BioRad, Inc., Hercules, Calif.). Differences between treated and untreated measurements were analyzed with a two-tailed unpaired t-test. […]

[2] = biological target: T1, H420R mutant tyrosinase in Melan-c cells (Mus musculus, UniProt P11344, H420R); experiment: Tyrosinase enzyme activity in transfected Melan-c cells, H420R; format: cell-based; conditions: 1 mM tyrosine; Melan-c cells expressing H420R; p=0.03
T1 construct: expressed in transfected cells; host or cells: Melan-c cells (albino mouse melanocytes), Fugene HD transfection
T1 sequence (P11344 19-533 H420R): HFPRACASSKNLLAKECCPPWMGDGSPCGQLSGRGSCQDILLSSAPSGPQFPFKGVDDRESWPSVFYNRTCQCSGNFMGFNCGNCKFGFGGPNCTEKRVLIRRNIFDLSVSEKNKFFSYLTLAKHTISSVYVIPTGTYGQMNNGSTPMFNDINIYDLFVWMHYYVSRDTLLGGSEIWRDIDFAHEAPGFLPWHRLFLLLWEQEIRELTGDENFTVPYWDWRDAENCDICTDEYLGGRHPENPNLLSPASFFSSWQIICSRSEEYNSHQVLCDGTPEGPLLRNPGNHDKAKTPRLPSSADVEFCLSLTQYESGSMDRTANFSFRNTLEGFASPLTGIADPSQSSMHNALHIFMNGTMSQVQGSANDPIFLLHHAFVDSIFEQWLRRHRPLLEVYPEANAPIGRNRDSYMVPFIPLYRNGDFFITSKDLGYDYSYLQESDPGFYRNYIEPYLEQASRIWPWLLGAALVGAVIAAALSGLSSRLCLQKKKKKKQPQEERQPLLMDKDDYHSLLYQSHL
Description: Melan-c cell cultures. Melan-c cells (melanocytes derived from mice homozygous for the albino mutation (D. C. Bennett et al., Development, 105:379 (1989)) were cultured in RPMI 1640, pH 6.9 supplemented with 5% fetal bovine serum (FBS), streptomycin-penicillin (100 μg/ml each), 200 nM tetradeconyl phorbol acetate (TPA), and 100 μM β-mercaptoethanol, at 37° C. in 10% CO2. Cells were transfected using Fugene HD reagent according to the manufacturer's instructions (Roche Diagnostics Inc., Indianapolis, Ind.) in presence or absence of 1 mM tyrosine. After 24 hours, cells were washed twice with saline phosphate buffer, harvested in 10 mM sodium phosphate, pH 6.8, containing 1% Igepal CA-630 and protease inhibitor (Roche), and microcentrifuged for 30 minutes at 13,200×g, at a temperature of about 4° C. to obtain a protein lysate.
Diphenol oxidase activity of tyrosinase was determined spectrophotometrically according to Slominski et al., J. Invest. Dermatol., 96:172 (1991), with minor modifications. Briefly, the reaction mixtures contained 7 mM L-dopa in 0.1 M sodium phosphate buffer (pH 6.8) and protein lysate (20 mg/ml) was incubated at 37° C. and monitored by measuring the absorbance at 475 nm. All experiments were conducted in triplicate. […]

SMILES: N[C@@H](Cc1ccc(O)cc1)C(=O)O [tyrosine]
- Pigmentation [1]: significantly increased pigmentation
- Tyrosinase enzyme activity over baseline [2]: increased enzyme activity over baseline
